Here are results for five molecules from US12122766B2, “3-azabicyclo[3,1,1]heptane derivative and pharmaceutical composition including same” (LG CHEM, LTD., priority 2018, dated 2024).

For the assay, the target named is T1, Ketohexokinase (KHK) (Homo sapiens, UniProt P50053).
T1 construct: His tag; made in house; host or cells: E. coli
T1 sequence (P50053 1-298): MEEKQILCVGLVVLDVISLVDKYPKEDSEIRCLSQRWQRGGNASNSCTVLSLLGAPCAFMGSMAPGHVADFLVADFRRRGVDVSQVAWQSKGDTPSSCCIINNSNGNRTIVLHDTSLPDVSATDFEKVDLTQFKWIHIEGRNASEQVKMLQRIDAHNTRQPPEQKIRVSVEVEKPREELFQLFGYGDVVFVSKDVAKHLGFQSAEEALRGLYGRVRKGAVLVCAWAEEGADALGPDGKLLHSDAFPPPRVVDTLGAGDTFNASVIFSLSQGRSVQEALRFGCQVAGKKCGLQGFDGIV
As to the kind of experiment: Activity measurement of ketohexokinase inhibitor in vitro (Transcreener ADP2 TR-FRET Red Assay). In kind it is biochemical. The conditions noted are these: purified His-tagged KHK expressed in E. coli; 30 min preincubation with inhibitor, 15 min reaction with ATP and fructose; ADP by TR-FRET (665/615 ratio). How it is done: Ketohexokinase (KHK) was expressed in E. coli, and was purified using His tag. In order to measure the activity of the purified KHK, Transcreener ADP2 TR-FRET Red Assay kit of BellBrook Labs was used. A method of measuring the amount of ADP produced using TR-FRET after reacting a solution including appropriate concentrations of a KHK protein, ATP, and fructose for 15 minutes, was used. In order to observe the activity of a ketohexokinase (KHK) inhibitor, ketohexokinase (KHK) and an inhibitor with an appropriate concentration were reacted first for 30 minutes, and then, reacted with a solution include a substrate of ketohexokinase (KHK) for 15 minutes. Then, reaction for TR-FRET was conducted for 1 hour, and fluorescence was measured using Envision apparatus of PerkinElmer Co. The predetermined value of Envision apparatus was determined according to the optimization process of TR-FRET published by BellBrook Lab. The resultant value for each concentration of the ketohexokinase (KHK) inhibitor is determined by a ratio of 665 nm wavelength and 615 nm wavelength. IC50 is analyzed by measuring the 665/615 ratio value with respect to the concentration of each inhibitor and using a statistics software (Prizm). IC50 was represented by the concentration of the inhibitor, showing 50% of the maximum inhibition activity by the inhibitor.
For orientation: In TR-FRET formats the signal depends on donor and acceptor labels being close together.

As to `C[C@H]1CCN1c1nc(N2C[C@H]3C[C@@H](C2)[C@H]3CC(=O)O)cc(C(F)(F)F)c1C#N` [Example 3, 2-((1R,5S,6R)-3-(5-cyano-6-((S)-2-methylazetidine-1-yl)-4-(trifluoromethyl)pyridine-2-yl)-3-azabicyclo[3,1,1]heptane-6-yl)acetic Acid], the half-maximal inhibitory concentration (IC50) (in general, the concentration that inhibits the measured activity by half) is at least 1 µM.

For the molecule `N#Cc1c(C(F)(F)F)cc(N2C[C@H]3C[C@@H](C2)[C@@H]3CC(=O)O)nc1N1CCCC1` [Example 5, 2-((1R,5S,6R)-3-(5-cyano-6-(pyrrolidine-1-yl)-4-(trifluoromethyl)pyridine-2-yl)-3-azabicyclo[3,1,1]heptane-6-yl)acetic Acid], the IC50 was at most 21.2 µM.

Turning to `C[C@H]1CCN1c1nc(N2C[C@H]3C[C@@H](C2)[C@@H]3CC(=O)O)cc(C(F)(F)F)n1` [Example 2, 2-((1R,5S,6S)-3-(2-((S)-2-methylazetidine-1-yl)-6-(trifluoromethyl)pyrimidine-4-yl)-3-azabicyclo[3,1,1]heptane-6-yl)acetic Acid], the IC50 is at most 21.2 µM.

With `C[C@H]1CCN1c1nc(N2C[C@H]3C[C@@H](C2)[C@@H]3CC(=O)O)cc(C(F)(F)F)c1C#N` [Example 4, 2-((1R,5S,6S)-3-(5-cyano-6-((S)-2-methylazetidine-1-yl)-4-(trifluoromethyl)pyridine-2-yl)-3-azabicyclo[3,1,1]heptane-6-yl)acetic Acid], the IC50 is at most 21.2 µM.

In the case of `C[C@H]1CCN1c1nc(N2C[C@H]3C[C@@H](C2)[C@H]3CC(=O)O)cc(C(F)(F)F)n1` [Example 1, 2-((1R,5S,6R)-3-(2-((S)-2-methylazetidine-1-yl)-6-(trifluoromethyl)pyrimidine-4-yl)-3-azabicyclo[3,1,1]heptane-6-yl)acetic Acid], the IC50 was at least 1 µM.
